Literature values, collected in patent publication US5965741A, “Ortho-substituted aromatic ether compounds and their use in pharmaceutical compositions for pain relief” (Zeneca Limited, priority 1994, dated 1999).

System: EP1 receptors
Settings: guinea pig ileum or dog fundus

block of the effect of PGE2: blocks the effect of PGE2
SMILES: CC(=O)NNC(=O)N1Cc2ccccc2Oc2ccc(Cl)cc21 [SC-19220]
